Earlier results in PubChem BioAssay AID1259409 (Chemical Carcinogenesis Research Information System (CCRIS), 2018).

Tested on: rodent chemically induced tumor inhibition, incidence and multiplicity
Experiment: CCRIS tumor inhibitor studies
Conditions: Dose [Inhibitor]: 0
Text: The CCRIS database contains chemical records with carcinogenicity, mutagenicity, tumor promotion, and tumor inhibition test results. It was developed by the National Cancer Institute (NCI). Data are derived from studies cited in primary journals, current awareness tools, NCI reports, and other sources. Test results have been reviewed by experts in carcinogenesis and mutagenesis.
CCRIS provides historical information from the years 1985 - 2011. It is no longer updated.
This is an archive assay for CCRIS tumor inhibitor studies.

## O=C(OC[C@@H]1O[C@H](OC(=O)c2cc(O)c(O)c(OC(=O)c3cc(O)c(O)c(O)c3)c2)[C@@H](OC(=O)c2cc(O)c(O)c(OC(=O)c3cc(O)c(O)c(O)c3)c2)[C@H](OC(=O)c2cc(O)c(O)c(OC(=O)c3cc(O)c(O)c(O)c3)c2)[C@H]1OC(=O)c1cc(O)c(O)c(OC(=O)c2cc(O)c(O)c(O)c2)c1)c1cc(O)c(O)c(OC(=O)c2cc(O)c(O)c(O)c2)c1
Carcinogen: 7,12-DIMETHYLBENZ[A]ANTHRACENE : 57-97-6, 17 MG 2/WK FOR 20 WK APPLIED 24 HR POST EACH PROMOTER DOSE (STUDY DURATION: 22 WK), Route [Inhibitor]: DERMAL, Species: MOUSE, Strain/Sex: CF-1/FEMALE, Target Tissue: Type of Lesion: SKIN: PAPILLOMA, Dose [Carcinogen]: 25.6 UG IN 0.2 ML ACETONE ONCE, Promoter: 12-O-TETRADECANOYLPHORBOL-13-ACETATE, 16561-29-8
  tumour outcome (control, treated, inhibition, significance): 90%, 98%, -9%, not calculated
Carcinogen: 7,12-DIMETHYLBENZ[A]ANTHRACENE, 57-97-6, 1% IN DIET FOR 35 WK BEGINNING POST CARCINOGEN DOSE (STUDY DURATION: 36 WK), Route [Inhibitor]: ORAL, Species: RAT, Strain/Sex: SPRAGUE-DAWLEY/FEMALE, Target Tissue: Type of Lesion: EAR DUCT: TUMOR, Dose [Carcinogen]: 50 MG/KG BW IN CORN OIL ONCE, Promoter: NONE USED
  tumour outcome (control, treated, inhibition, significance): 5/15 (33%), 5/15 (33%), 0%, not significant
Carcinogen: 7,12-DIMETHYLBENZ[A]ANTHRACENE, 57-97-6, 1% IN DIET FOR 35 WK BEGINNING POST CARCINOGEN DOSE (STUDY DURATION: 36 WK), Route [Inhibitor]: ORAL, Species: RAT, Strain/Sex: SPRAGUE-DAWLEY/FEMALE, Target Tissue: Type of Lesion: MAMMARY GLAND: ADENOCARCINOMA, Dose [Carcinogen]: 50 MG/KG BW IN CORN OIL ONCE, Promoter: NONE USED
  tumour outcome (control, treated, inhibition, significance): 14/15 (93%), 12/15 (80%), 14%, not significant
Carcinogen: 7,12-DIMETHYLBENZ[A]ANTHRACENE, 57-97-6, 1% IN DIET FOR 35 WK BEGINNING POST CARCINOGEN DOSE (STUDY DURATION: 36 WK), Route [Inhibitor]: ORAL, Species: RAT, Strain/Sex: SPRAGUE-DAWLEY/FEMALE, Target Tissue: Type of Lesion: MAMMARY GLAND: FIBROADENOMA, Dose [Carcinogen]: 50 MG/KG BW IN CORN OIL ONCE, Promoter: NONE USED
  tumour outcome (control, treated, inhibition, significance): 3/15 (20%), 2/15 (13%), 35%, not significant
Carcinogen: 7,12-DIMETHYLBENZ[A]ANTHRACENE, 57-97-6, 2.5 UMOL IN 0.4 ML ACETONE 20 MIN PRIOR TO EACH PROMOTER DOSE (STUDY DURATION: 47 WK), Route [Inhibitor]: DERMAL, Species: MOUSE, Strain/Sex: CF-1/FEMALE, Target Tissue: Type of Lesion: SKIN: PAPILLOMA, Dose [Carcinogen]: 100 NMOL IN 0.2 ML ACETONE ONCE
  tumour outcome (control, treated, inhibition, significance): 94%, 61%, 35%, not calculated
Carcinogen: 7,12-DIMETHYLBENZ[A]ANTHRACENE, 57-97-6, 5 UMOL IN 0.4 ML ACETONE 20 MIN PRIOR TO EACH PROMOTER DOSE (STUDY DURATION: 47 WK), Route [Inhibitor]: DERMAL, Species: MOUSE, Strain/Sex: CF-1/FEMALE, Target Tissue: Type of Lesion: SKIN: PAPILLOMA, Dose [Carcinogen]: 100 NMOL IN 0.2 ML ACETONE ONCE
  tumour outcome (control, treated, inhibition, significance): 94%, 46%, 51%, not calculated
Carcinogen: 7,12-DIMETHYLBENZ[A]ANTHRACENE, 57-97-6, 10 UMOL IN 0.4 ML ACETONE 20 MIN PRIOR TO EACH PROMOTER DOSE (STUDY DURATION: 47 WK), Route [Inhibitor]: DERMAL, Species: MOUSE, Strain/Sex: CF-1/FEMALE, Target Tissue: Type of Lesion: SKIN: CARCINOMA, Dose [Carcinogen]: 100 NMOL IN 0.2 ML ACETONE ONCE
  tumour outcome (control, treated, inhibition, significance): 67%, 11%, 84%, not calculated
Carcinogen: 7,12-DIMETHYLBENZ[A]ANTHRACENE, 57-97-6, 10 UMOL IN 0.4 ML ACETONE 20 MIN PRIOR TO EACH PROMOTER DOSE (STUDY DURATION: 47 WK), Route [Inhibitor]: DERMAL, Species: MOUSE, Strain/Sex: CF-1/FEMALE, Target Tissue: Type of Lesion: SKIN: PAPILLOMA, Dose [Carcinogen]: 100 NMOL IN 0.2 ML ACETONE ONCE
  tumour outcome (control, treated, inhibition, significance): 94%, 43%, 54%, not calculated
Carcinogen: 7,12-DIMETHYLBENZ[A]ANTHRACENE, 57-97-6, 17 MG 2/WK FOR 2 WK APPLIED 20 MIN PRIOR TO EACH TPA DOSE (STUDY DURATION: 22 WK), Route [Inhibitor]: DERMAL, Species: MOUSE, Strain/Sex: SENCAR/FEMALE, Target Tissue: Type of Lesion: SKIN: PAPILLOMA, Dose [Carcinogen]: 6.4 UG IN 0.2 ML ACETONE ONCE, Promoter: 12-O-TETRADECANOYLPHORBOL-13-ACETATE, 16561-29-8, MEZEREIN, 34807-41-5, Promoter: 12-O-TETRADECANOYLPHORBOL-13-ACETATE, 16561-29-8, MEZEREIN, 34807-41-5
  tumour outcome (control, treated, inhibition, significance): 90%, 94%, -4%, not calculated
Carcinogen: 7,12-DIMETHYLBENZ[A]ANTHRACENE, 57-97-6, 17 MG 2/WK FOR 18 WK APPLIED 20 MIN PRIOR TO EACH MEZEREIN DOSE (STUDY DURATION: 22 WK), Route [Inhibitor]: DERMAL, Species: MOUSE, Strain/Sex: SENCAR/FEMALE, Target Tissue: Type of Lesion: SKIN: PAPILLOMA, Dose [Carcinogen]: 6.4 UG IN 0.2 ML ACETONE ONCE, Promoter: 12-O-TETRADECANOYLPHORBOL-13-ACETATE, 16561-29-8 : MEZEREIN, 34807-41-5, Promoter: 12-O-TETRADECANOYLPHORBOL-13-ACETATE, 16561-29-8 : MEZEREIN, 34807-41-5
  tumour outcome (control, treated, inhibition, significance): 90%, 62%, 31%, not calculated
Carcinogen: 7,12-DIMETHYLBENZ[A]ANTHRACENE, 57-97-6, 17 MG 2/WK FOR 20 WK APPLIED 20 MIN PRIOR TO AND 24 HR POST EACH PROMOTER DOSE (STUDY DURATION: 22 WK), Route [Inhibitor]: DERMAL, Species: MOUSE, Strain/Sex: CF-1/FEMALE, Target Tissue: Type of Lesion: SKIN: PAPILLOMA, Dose [Carcinogen]: 25.6 UG IN 0.2 ML ACETONE ONCE, Promoter: 12-O-TETRADECANOYLPHORBOL-13-ACETATE, 16561-29-8
  tumour outcome (control, treated, inhibition, significance): 90%, 16%, 82%, not calculated
